Where two headings read alike, the source gives them in different places.
Tested on: HIV-1 303B
Experiment: microbe, parasite or virus in culture
Type: cell-based
Details: for overall antiviral effect of the two-drug combination with Example 19 (in words): classification from combination indices and confidence intervals; for Combination Indices at 50% HIV Inhibition (Confidence Interval) / Combination Indices at 75% HIV Inhibition (Confidence Interval) / Combination Indices at 90% HIV Inhibition (Confidence Interval): in combination with Example 19, 95% CI in parenthesis
Experimental: Virus and cell lines. The T-cell line, MT-2, was obtained through the AIDS Research and Reference Reagent Program. MT-2 cells were sub-cultured twice a week in RPMI 1640 medium supplemented with 10% fetal bovine serum, 2 mM L-glutamine, and 10 mM HEPES buffer pH 7.5. The HIV-1303B virus is a molecular clone derived from the NL4-3 strain of HIV-1 that was obtained from the NIH AIDS Research and Reference Reagent Program. For combinations with enfuvirtide, the NL36G virus was used. […] Virus stocks were made by transfecting 293T cells with a proviral DNA clone using LipofectAMINE PLUS (Invitrogen), according to the manufacturer's instructions. Three days post-transfection, virus was harvested and passaged once in MT-2 cells before titration in MT-2 cells.
Chemicals. Example 19, atazanavir, didanosine, stavudine, efavirenz, and enfuvirtide (T-20) were synthesized by Bristol-Myers Squibb using published or known reactions. […] Tenofovir was tested as tenofovir disopoxil fumarate. Zidovudine and zalcitabine were purchased from Sigma, and emtricitabine from Moravek Biochemicals.
Drug Susceptibility and Cytotoxicity Assays. For drug susceptibility assays, MT-2 cells were infected with HIV-1 303B (or NL36G), at an MOI of 0.001, and seeded into 96-well microtiter plates (2.5×10^5 cells/ml) containing serial dilutions of test compounds. […] Each drug ratio consisted of an array of 3-fold serial dilutions, and was performed with eight or more replicas on separate multi-well plates. HIV infected cells were incubated at 37° C. in 5% CO2, and on day five post-infection, the extent of virus replication was measured by determining cell viability using the CellTiter 96 Aqueous Non-Radioactive Cell Proliferation Assay (Promega). […] Cytotoxicity assays were performed in parallel with the combination experiments. Here, uninfected cells were exposed to the same drug combinations, and assayed after five days for cell viability using the MTS assay.
Analysis of Drug Combination Effects. For determination of combination index (CI) values, drugs were diluted in a fixed ratio and multiple ratios were analyzed. The drug serial dilutions spanned a range of concentrations near the EC50 value of each compound, so that equivalent antiviral activities could be compared. The normalized responses from each therapy are fit to the four-parameter logistic model with a common minimum and maximum across all therapies. Conceptually, this equation can be written as
In this equation, Fa stands for “fraction affected,” and represents the fraction of the viral load that has been inactivated. […] The EC50, represented by the Ci in the above equation, is the drug concentration that is expected to reduce the amount of virus by 50%, and the Bi are the parameters that reflects the slope of the concentration-response curve. For this assay, A is the bottom plateau common to all curves, D is the common top plateau, Bj is the “slope” parameter for the jth therapy, and Cj is the concentration that produces an effect equal to the average of A and D for the jth therapy. Therapies 1 and 2 correspond to mono therapies 1 and 2, respectively. Therapies 3, 4, and 5 correspond to the three combination therapies. EC50 values for each drug were determined from the single drug experiments, using the above equation. The equation was fit using a nonlinear regression routine (Proc Nlin) in PC SAS version 8.2 (SAS Institute Inc.).
To assess antiviral effects of different drug combination treatments, combination indices (CIs) were calculated according to Chou and Rideout. The combination index was computed as
In this equation [Dm]1 and [Dm]2 are the concentrations of drugs that would individually produce a specific level of effect, while [D]1 and [D]2 are the concentrations of drugs in combination that would produce the same level of effect.
Theoretically, additivity is implied if the CI is equal to one, synergy if the CI is less than one, and antagonism if the CI is greater than one.

[1] = Human immunodeficiency virus 1, MT2, 120 h
[2] = EC50 ratio Example 19:comparator 1:1
[3] = EC50 ratio Example 19:comparator 1:2.5
[4] = EC50 ratio Example 19:comparator 2.5:1

| SMILES | EC50 [1] [nM] | overall antiviral effect of the two-drug combination with Example 19 (in words) | Combination Indices at 50% HIV Inhibition (Confidence Interval) [2] | Combination Indices at 75% HIV Inhibition (Confidence Interval) [2] | Combination Indices at 90% HIV Inhibition (Confidence Interval) [2] | Combination Indices at 50% HIV Inhibition (Confidence Interval) [3] | Combination Indices at 75% HIV Inhibition (Confidence Interval) [3] | Combination Indices at 90% HIV Inhibition (Confidence Interval) [3] | Combination Indices at 50% HIV Inhibition (Confidence Interval) [4] | Combination Indices at 75% HIV Inhibition (Confidence Interval) [4] | Combination Indices at 90% HIV Inhibition (Confidence Interval) [4] | overall antiviral effect of the two-drug combination with Example 19 (in words) (listed as nevaripine) | EC50 (single drug, MT-2 cells, MOI 0.001, day five, MTS cell viability, read-out: EC50) [nM] |
| --- | --- | --- | --- | --- | --- | --- | --- | --- | --- | --- | --- | --- | --- |
| Cc1cn([C@H]2C[C@H](N=[N+]=[N-])[C@@H](CO)O2)c(=O)[nH]c1=O [Zidovudine] | 12 | synergistic to additive | 0.59 (0.49, 0.69) | 0.56 (0.41, 0.70) | 0.54 (0.36, 0.70) | 0.65 (0.56, 0.75) | 0.73 (0.59, 0.86) | 0.81 (0.57, 1.06) | 0.72 (0.61, 0.83) | 0.83 (0.64, 1.02) | 0.96 (0.63, 1.30) | – | – |
| Cc1ccnc2c1NC(=O)c1cccnc1N2C1CC1 [Nevirapine, nevirapine] | 95 | synergism at most effective concentrations and molar ratios | 0.72 (0.62, 0.82) | 0.69 (0.55, 0.83) | 0.66 (0.46, 0.87) | 0.76 (0.64, 0.87) | 0.81 (0.64, 0.97) | 0.87 (0.59, 1.15) | 0.73 (0.62, 0.83) | 0.68 (0.55, 0.81) | 0.64 (0.45, 0.84) | strong synergistic effects | – |
| Cc1c(O)cccc1C(=O)N[C@@H](CSc1ccccc1)[C@H](O)CN1C[C@H]2CCCC[C@H]2C[C@H]1C(=O)NC(C)(C)C [Nelfinavir, nelfinavir] | 22 | synergistic-additive effect | 0.79 (0.73, 0.86) | 0.75 (0.67, 0.82) | 0.71 (0.56, 0.84) | 0.97 (0.89, 1.06) | 0.87 (0.79, 0.95) | 0.78 (0.68, 0.88) | 1.09 (1.00, 1.18) | 0.98 (0.89, 1.08) | 0.90 (0.76, 1.03) | – | – |
| CC(C)CN(C[C@@H](O)[C@H](Cc1ccccc1)NC(=O)O[C@H]1CCOC1)S(=O)(=O)c1ccc(N)cc1 [Amprenavir, amprenavir] | 62 | synergistic-additive effect | 0.83 (0.67, 1.00) | 0.84 (0.61, 1.08) | 0.89 (0.50, 1.23) | 0.84 (0.69, 0.99) | 0.77 (0.58, 0.96) | 0.75 (0.46, 1.04) | 0.90 (0.77, 1.04) | 0.62 (0.50, 0.74) | 0.44 (0.30, 0.57) | – | – |
| CC(C)(C)NC(=O)[C@@H]1C[C@@H]2CCCC[C@@H]2CN1C[C@@H](O)[C@H](Cc1ccccc1)NC(=O)[C@H](CC(N)=O)NC(=O)c1ccc2ccccc2n1 [Saquinavir, saquinavir] | 11 | confidence interval is below one at all concentrations and effective levels | 0.77 (0.70, 0.84) | 0.67 (0.58, 0.75) | 0.58 (0.47, 0.69) | 0.43 (0.38, 0.48) | 0.51 (0.42, 0.59) | 0.59 (0.44, 0.74) | 0.81 (0.72, 0.89) | 0.77 (0.66, 0.89) | 0.74 (0.57, 0.91) | – | – |
| Cc1cccc(C)c1OCC(=O)N[C@@H](Cc1ccccc1)[C@@H](O)C[C@H](Cc1ccccc1)NC(=O)[C@H](C(C)C)N1CCCNC1=O [Lopinavir, lopinavir] | 17 | additive relationship with Example 19 cannot be ruled out | 0.74 (0.67, 0.82) | 0.77 (0.66, 0.88) | – | 0.77 (0.66, 0.88) | 0.56 (0.36, 0.75) | 0.41 (0.19, 0.64) | 0.76 (0.69, 0.83) | 0.62 (0.55, 0.70) | 0.54 (0.47, 0.61) | – | – |
| C[C@H](Cn1cnc2c(N)ncnc21)OCP(=O)(O)O [Tenofovir, tenofovir] | – | synergistic to additive | 0.66 (0.57, 0.75) | 0.54 (0.45, 0.62) | 0.43 (0.33, 0.53) | 0.68 (0.59, 0.77) | 0.60 (0.48, 0.72) | 0.52 (0.36, 0.69) | 0.90 (0.77, 1.04) | 0.84 (0.67, 1.01) | 0.79 (0.55, 1.03) | – | 18 |

— patent publication US7491819B1 (priority 2004, dated 2009)
